Results reported in patent US20250319012A1, “METHOD FOR PREPARING LOW-MOLECULAR-WEIGHT SILK SERICIN, AND COSMETIC COMPOSITION COMPRISING SERICIN PREPARED THEREBY” (HEWON CO., LTD., priority 2021, published 2025).

B1: papain: endopeptidase type enzyme (protein, UniProt P00784 134-345, looked up)
Papain: IPEYVDWRQKGAVTPVKNQGSCGSCWAFSAVVTIEGIIKIRTGNLNEYSEQELLDCDRRSYGCNGGYPWSALQLVAQYGIHYRNTYPYEGVQRYCRSREKGPYAAKTDGVRQVQPYNEGALLYSIANQPVSVVLEAAGKDFQLYRGGIFVGPCGNKVDHAVAAVGYGPNYILIKNSWGTGWGENGYIRIKRGTGNSYGVCGLYTSSFYPVKN

Tested on: soluble sericin
Assay: Hydrolytic activity of enzymes on soluble sericin (absorbance of supernatant at 271 nm)
Type: biochemical
Conditions: 10% enzyme, pH 7, 8 hours, 30-70° C. tested
Protocol: To confirm the degree of hydrolysis of sericin according to the kinds of enzyme, a total of 7 kinds of endopeptidase type alcalase, esperase, protamax, bromelain, papain, neutrase and exopeptidase type flavourzyme were prepared. At this time, sericin extracted from the sericin prepared in Preparation Example 1 at 120° C. for 30 minutes was used as a substrate sample, and after centrifugation, insoluble sericin was removed and soluble sericin was used. […]
The reactants after hydrolysis were subjected to enzyme inactivation at 85° C. for 10 min, and then the supernatant was collected by centrifugation (10,000 rpm, 10 min). After diluting the supernatant 20 times with D/W, the absorbance value measured at 271 nm, which is the maximum absorption wavelength of sericin, with a spectrophotometer (UV/VIS Nano Spectrophotometer, Nabi, Microdigital) was used as a measure of solubility.
In order to minimize the change in pH during the enzyme reaction of Preparation Example 2, the pH was adjusted using 1 M acetic acid and an average of 26.5% ammonia hydroxide. 1 mg of soluble sericin was treated with 0.1 mg of an enzyme (10% of sericin concentration), […], and then the supernatant was collected to measure the absorbance with pH change. […]

| temperature at which high hydrolytic activity was shown [°C] | Molecule |
| --- | --- |
| 50 | bromelain |
| 60 | B1 |
